Laboratory results as given in US10669272B2, “Substituted naphthyridinone compounds useful as T cell activators” (BRISTOL-MYERS SQUIBB COMPANY, priority 2018, dated 2020).
Where two headings read alike, the source gives them in different places.

Key:
[1] = system: Human venous whole blood; assay: Human whole blood IFN-γ assay; type: cell-based; settings: human whole blood, anti-CD3 plus anti-CD28, 24 hours, 3 μM reference compound = 100% activation, read-out: INFg Whole Blood Normalized Agonist EC50;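 note: blood from healthy donors exposed to compound for 1 h before stimulation with anti-CD3 and anti-CD28 at 1 µg/mL each, IFN-γ quantified in supernatant by AlphaLISA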
[2] = molecular target: T1, human DGKα (Homo sapiens, UniProt P23743); assay: DGKα LIPGLO assay (extruded liposome substrate), in vitro DGK inhibition; type: biochemical; settings: DGKα liposome (LIPGLO) assay; read-out: DGKa LIPGLO IC50
T1 construct: TVMV protease cleavage site (C); Hexa-His (C); made in house; host or cells: Sf9 insect cells (baculovirus, Bac-to-Bac)

[3] = molecular target: T2, human DGKζ (Homo sapiens, UniProt Q13574); assay: DGKζ LIPGLO assay (extruded liposome substrate), in vitro DGK inhibition; type: biochemical; settings: DGKζ liposome (LIPGLO) assay; read-out: DGKz LIPGLO IC50
T2 construct: TVMV protease cleavage site (C); Hexa-His (C); made in house; host or cells: Sf9 insect cells (baculovirus, Bac-to-Bac)
T2 sequence (Q13574 with tags, fused parts or gaps isoform Q13574-4): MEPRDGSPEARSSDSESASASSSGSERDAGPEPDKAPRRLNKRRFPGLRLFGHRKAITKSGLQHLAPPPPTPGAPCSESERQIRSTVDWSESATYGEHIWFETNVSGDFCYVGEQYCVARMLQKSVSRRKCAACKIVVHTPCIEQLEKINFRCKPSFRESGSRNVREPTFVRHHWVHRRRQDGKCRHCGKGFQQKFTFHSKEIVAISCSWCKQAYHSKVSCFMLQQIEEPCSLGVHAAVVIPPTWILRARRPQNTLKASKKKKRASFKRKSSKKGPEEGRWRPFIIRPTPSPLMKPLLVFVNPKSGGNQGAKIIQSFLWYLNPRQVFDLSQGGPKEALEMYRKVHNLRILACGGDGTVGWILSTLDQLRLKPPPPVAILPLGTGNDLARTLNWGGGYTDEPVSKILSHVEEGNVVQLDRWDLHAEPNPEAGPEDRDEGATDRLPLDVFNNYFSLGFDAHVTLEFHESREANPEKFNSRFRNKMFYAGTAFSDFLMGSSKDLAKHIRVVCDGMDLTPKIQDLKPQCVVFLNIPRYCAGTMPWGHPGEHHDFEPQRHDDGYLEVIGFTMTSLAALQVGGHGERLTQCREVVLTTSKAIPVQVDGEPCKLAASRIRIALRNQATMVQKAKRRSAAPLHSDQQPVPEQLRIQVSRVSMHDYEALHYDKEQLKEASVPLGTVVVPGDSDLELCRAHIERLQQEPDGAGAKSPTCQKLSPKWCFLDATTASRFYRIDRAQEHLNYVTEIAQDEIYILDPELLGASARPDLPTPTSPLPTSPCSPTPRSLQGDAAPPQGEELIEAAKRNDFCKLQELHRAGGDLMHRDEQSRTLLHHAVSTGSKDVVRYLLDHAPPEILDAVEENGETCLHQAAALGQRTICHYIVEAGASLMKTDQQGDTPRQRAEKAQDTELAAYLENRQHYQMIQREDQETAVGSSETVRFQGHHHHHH

T1 sequence (P23743 with tags, fused parts or gaps): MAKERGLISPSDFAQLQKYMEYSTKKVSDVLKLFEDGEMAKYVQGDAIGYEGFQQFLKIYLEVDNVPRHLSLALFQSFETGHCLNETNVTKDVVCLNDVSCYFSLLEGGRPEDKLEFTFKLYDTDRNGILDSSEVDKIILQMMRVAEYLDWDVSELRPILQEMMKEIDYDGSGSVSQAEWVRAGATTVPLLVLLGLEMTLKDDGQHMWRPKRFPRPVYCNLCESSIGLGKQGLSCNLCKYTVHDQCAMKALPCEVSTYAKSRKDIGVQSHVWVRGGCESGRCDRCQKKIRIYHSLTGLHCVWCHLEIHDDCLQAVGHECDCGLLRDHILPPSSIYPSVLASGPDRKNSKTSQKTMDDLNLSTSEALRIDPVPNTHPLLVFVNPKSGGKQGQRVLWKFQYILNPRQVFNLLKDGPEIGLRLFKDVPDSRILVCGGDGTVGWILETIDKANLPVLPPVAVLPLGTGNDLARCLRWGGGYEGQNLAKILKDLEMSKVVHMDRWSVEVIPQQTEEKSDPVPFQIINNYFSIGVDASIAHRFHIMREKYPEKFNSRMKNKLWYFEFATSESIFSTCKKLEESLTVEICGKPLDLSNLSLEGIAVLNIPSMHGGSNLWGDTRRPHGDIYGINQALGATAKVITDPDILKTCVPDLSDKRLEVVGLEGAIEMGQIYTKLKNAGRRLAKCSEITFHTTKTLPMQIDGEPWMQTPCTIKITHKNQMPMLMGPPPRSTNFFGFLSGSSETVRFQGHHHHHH

IC50 [2] [µM]	IC50 [3] [µM]	SMILES	EC50 [1] [µM]	EC50 ([1]; Homo sapiens, 24 h) [µM]
0.75	0.88	C[C@@H]1CN(c2c(C#N)c(=O)n(C)c3ccc(C#N)nc23)[C@@H](C)CN1C(c1ccc(F)cc1)c1ccccn1 (single isomer, unassigned) [Example 843]	3.8	–
100	5.2	C[C@@H]1CN(c2c(C#N)c(=O)n(C)c3ccc(C#N)nc23)[C@@H](C)CN1C(c1ccc(F)cc1)c1cccc(C(F)(F)F)n1 (single isomer, unassigned) [Example 844]	–	2.7
2.5	6.2	C[C@@H]1CN(c2c(C#N)c(=O)n(C)c3ccc(C#N)nc23)[C@@H](C)CN1C(c1ccc(F)cc1)c1cccc(C(F)(F)F)n1 (single isomer, unassigned) [Example 845]	1.5	–
0.51	5.4	C[C@@H]1CN(c2c(C#N)c(=O)n(C)c3ccc(C#N)nc23)[C@@H](C)CN1C(c1ccc(F)cc1)c1ccon1 (single isomer, unassigned) [Example 850]	3.6	–
1.3	27	C[C@@H]1CN(c2c(C#N)c(=O)n(C)c3ccc(C#N)nc23)[C@@H](C)CN1C(c1ccc(F)cc1)c1ccon1 (single isomer, unassigned) [Example 851]	20	–
19	38	C[C@@H]1CN(c2c(C#N)c(=O)n(C)c3ccc(C#N)nc23)[C@@H](C)CN1C(c1ccc(F)cc1)c1cn(C)cn1 (single isomer, unassigned) [Example 853]	–	20
5.1	1.9	C[C@@H]1CN(c2c(C#N)c(=O)n(C)c3ccc(C#N)nc23)[C@@H](C)CN1C(c1ccc(F)cc1)c1ccns1 (single isomer, unassigned) [Example 854]	–	10
1	1.9	C[C@@H]1CN(c2c(C#N)c(=O)n(C)c3ccc(C#N)nc23)[C@@H](C)CN1C(c1ccc(F)cc1)c1cscn1 (single isomer, unassigned) [Example 857]	–	1.4
0.48	0.15	C[C@@H]1CN(c2c(C#N)c(=O)n(C)c3ccc(C#N)nc23)[C@@H](C)CN1C(c1ccc(F)cc1)c1csc(C2CC2)n1 (single isomer, unassigned) [Example 858]	1.7	–
3	0.36	C[C@@H]1CN(c2c(C#N)c(=O)n(C)c3ccc(C#N)nc23)[C@@H](C)CN1C(c1ccc(F)cc1)c1csc(C2CC2)n1 (single isomer, unassigned) [Example 859]	3.7	–
0.41	1.3	C[C@@H]1CN(c2c(C#N)c(=O)n(C)c3ccc(C#N)nc23)[C@@H](C)CN1C(c1ccc(F)cc1)c1nc(C2CC2)no1 (single isomer, unassigned) [Example 860]	–	0.72
0.42	0.63	C[C@@H]1CN(c2c(C#N)c(=O)n(C)c3ccc(C#N)nc23)[C@@H](C)CN1C(c1ccc(F)cc1)c1nc(C2CC2)no1 (single isomer, unassigned) [Example 861]	0.42	–
0.29	0.6	CC1CN(C(c2ccc(F)cc2)c2nc(C(C)(C)C)no2)C(C)CN1c1c(C#N)c(=O)n(C)c2ccc(C#N)nc12 (single isomer, unassigned) [Example 862]	–	1.2
0.53	0.19	CC1CN(C(c2ccc(F)cc2)c2nc(C(C)(C)C)no2)C(C)CN1c1c(C#N)c(=O)n(C)c2ccc(C#N)nc12 (single isomer, unassigned) [Example 863]	0.72	–
0.17	1	Cc1cc(C(c2ccc(F)cc2)N2C[C@H](C)N(c3c(C#N)c(=O)n(C)c4ccc(C#N)nc34)C[C@H]2C)no1 (single isomer, unassigned) [Example 864]	–	6.5
0.39	0.94	C[C@@H]1CN(c2c(C#N)c(=O)n(C)c3ccc(C#N)nc23)[C@@H](C)CN1C(c1ccc(F)cc1)c1cc(C(C)(C)C)on1 (single isomer, unassigned) [Example 866]	2.3	–
> 250	7.9	C[C@@H]1CN(c2c(C#N)c(=O)n(C)c3ccc(C#N)nc23)[C@@H](C)CN1C(c1ccc(F)cc1)c1cc(C(C)(C)C)on1 (single isomer, unassigned) [Example 867]	20	–
0.44	2.4	C[C@@H]1CN(c2c(C#N)c(=O)n(C)c3ccc(C#N)nc23)[C@@H](C)CN1C(c1ccc(F)cc1)c1cc(C2CC2)on1 (single isomer, unassigned) [Example 868]	–	2.2
1.1	1.3	C[C@@H]1CN(c2c(C#N)c(=O)n(C)c3ccc(C#N)nc23)CCN1C(c1ccc(F)cc1)c1ccc(C#N)cc1 (single isomer, unassigned) [Example 871]	–	3

IC50 [2] [µM]	IC50 [3] [µM]	SMILES	EC50 [1] [µM]	EC50 ([1]; Homo sapiens, 24 h) [µM]
1.7	0.51	C[C@@H]1CN(c2c(C#N)c(=O)n(C)c3ccc(C#N)nc23)CCN1C(c1ccccc1)c1cc(F)cc(F)c1 (single isomer, unassigned) [Example 875]	–	3.1
1.9	1.3	C[C@@H]1CN(c2c(C#N)c(=O)n(C)c3ccc(C#N)nc23)CCN1C(c1ccccc1)c1ccc(F)cc1 (single isomer, unassigned) [Example 878]	0.57	–
0.6	1.1	C[C@@H]1CN(c2c(C#N)c(=O)n(C)c3ccc(C#N)nc23)CCN1C(c1ccccc1)c1ccc(F)cc1 (single isomer, unassigned) [Example 879]	1.2	–
11	8.4	Cc1ccc(C(c2ncccc2F)N2CCN(c3c(C#N)c(=O)n(C)c4ccc(C#N)nc34)C[C@H]2C)cc1 (single isomer, unassigned) [Example 890]	–	6.6
3.1	3	C[C@@H]1CN(c2c(C#N)c(=O)n(C)c3ccc(C#N)nc23)CCN1C(c1ccc(F)cc1)c1ncccc1F (single isomer, unassigned) [Example 891]	–	2.8
1.8	1.3	Cc1ccc(C(c2ncccc2F)N2CCN(c3c(C#N)c(=O)n(C)c4ccc(C#N)nc34)C[C@H]2C)cc1 (single isomer, unassigned) [Example 892]	5	–
0.92	0.72	C[C@@H]1CN(c2c(C#N)c(=O)n(C)c3ccc(C#N)nc23)CCN1C(c1ccc(F)cc1)c1ncccc1F (single isomer, unassigned) [Example 893]	1.7	–
8.6	0.68	COc1ncccc1C(c1ccc(F)cc1)N1CCN(c2c(C#N)c(=O)n(C)c3ccc(C#N)nc23)C[C@H]1C (single isomer, unassigned) [Example 894]	4	–
0.71	2.7	COc1ncccc1C(c1ccc(F)cc1)N1CCN(c2c(C#N)c(=O)n(C)c3ccc(C#N)nc23)C[C@H]1C (single isomer, unassigned) [Example 895]	1.8	–
0.25	5.1	C[C@@H]1CN(c2c(C#N)c(=O)n(C)c3ccc(C#N)nc23)CCN1C(c1ccc(F)cc1)c1ccc(C(F)(F)F)cn1 (single isomer, unassigned) [Example 897]	13	–
0.17	1.4	Cc1ccc(C(c2ccc(F)cc2)N2CCN(c3c(C#N)c(=O)n(C)c4ccc(C#N)nc34)C[C@H]2C)nc1 (single isomer, unassigned) [Example 904]	–	0.52
4.6	1.2	Cc1cccc(C(c2ccc(F)cc2)N2CCN(c3c(C#N)c(=O)n(C)c4ccc(C#N)nc34)C[C@H]2C)n1 (single isomer, unassigned) [Example 905]	–	1.3
0.77	3.9	C[C@@H]1CN(c2c(C#N)c(=O)n(C)c3ccc(C#N)nc23)CCN1C(c1ccc(F)cc1)c1ccc(C#N)cn1 (single isomer, unassigned) [Example 908]	1.4	–
3	11	C[C@@H]1CN(c2c(C#N)c(=O)n(C)c3ccc(C#N)nc23)CCN1C(c1ccc(F)cc1)c1ccc(C(F)(F)F)cc1 (single isomer, unassigned) [Example 910]	20	–
0.69	1.2	C[C@@H]1CN(c2c(C#N)c(=O)n(C)c3ccc(C#N)nc23)CCN1C(c1cccc(F)c1)c1ccc(F)cn1 (single isomer, unassigned) [Example 911]	0.34	–
1.3	1.5	C[C@@H]1CN(c2c(C#N)c(=O)n(C)c3ccc(C#N)nc23)CCN1C(c1ccc(F)cc1)c1ccc(C(F)(F)F)cc1 (single isomer, unassigned) [Example 914]	1.9	–
0.98	5.8	C[C@@H]1CN(c2c(C#N)c(=O)n(C)c3ccc(C#N)nc23)CCN1C(c1ccc(F)cc1)c1ccccn1 (single isomer, unassigned) [Example 919]	1.4	–
4.9	13	C[C@@H]1CN(c2c(C#N)c(=O)n(C)c3ccc(C#N)nc23)CCN1C(c1ccc(F)cc1)c1ccc(C#N)cc1 (single isomer, unassigned) [Example 920]	1.9	–
23	3.1	C[C@@H]1CN(c2c(C#N)c(=O)n(C)c3ccc(C#N)nc23)CCN1C(c1ccc(F)cc1)c1cccc(C(F)(F)F)n1 (single isomer, unassigned) [Example 921]	1.5	–
